Results as given in ChEMBL document CHEMBL1201862, “PubChem BioAssay data set” (2004).
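Following 48 hours of exposure in 96-well plates, responses at five concentrations were used to interpolate endpoints linearly. Abbreviation: GI50, concentration required for 50% inhibition of growth.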 Calls of active or inactive are those of the source. Rule as the data show it: active = GI50 up to about 1.1 µM and inactive = higher.

Key:
Assay in all cases: growth of human tumour cells (NCI), 48 h
[1] = system: SF-539
[2] = system: HCT-116
[3] = system: ACHN
[4] = system: KM12
[5] = system: A498
[6] = system: NCI/ADR-RES
[7] = system: MOLT-4
[8] = system: PC-3
[9] = system: SK-OV-3
[10] = system: COLO 205
[11] = system: HCT-15
[12] = system: Malme-3M
[13] = system: MCF7
[14] = system: UO-31
[15] = system: K562
[16] = system: CAKI-1
[17] = system: SR
[18] = system: NCI-H522
[19] = system: NCI-H226

Row | Compound | GI50 [1] | GI50 [2] | GI50 [3] | GI50 [4] | GI50 [5] | GI50 [6] | GI50 [7] | GI50 [8] | GI50 [9] | GI50 [10] | GI50 [11] | GI50 [12] | GI50 [13] | GI50 [14] | GI50 [15] | GI50 [16] | GI50 [17] | GI50 [18] | GI50 [19]
1 | O=C1C=CC(=O)C(CNc2ccc(C(=O)OCc3ccccc3)cc2)=C1 | 2.72 µM (inactive) | 5.3 µM (inactive) | 3.66 µM (inactive) | 9.35 µM (inactive) | 11.2 µM (inactive) | 4 µM (inactive) | 2 µM (inactive) | 3.36 µM (inactive) | 12.6 µM (inactive) | 1.86 µM (inactive) | 2.59 µM | 2.67 µM (inactive) | 4.57 µM (inactive) | 2.29 µM (inactive) | 2.62 µM (inactive) | 1.38 µM (inactive) | 1.29 µM (inactive) | 1.39 µM (inactive) | 12.3 µM (inactive)
2 | O=C(O)c1cc2c(cc1CC(Cc1ccc3c(c1)CCCC3)C(=O)O)CCCC2 (stereo not given) | 34.4 µM (inactive) | > 100 µM (inactive) | 56.5 µM (inactive) | > 100 µM (inactive) | > 100 µM (inactive) | 32.8 µM (inactive) | 59.8 µM (inactive) | > 100 µM (inactive) | > 100 µM (inactive) | > 100 µM (inactive) | 64.4 µM | > 100 µM (inactive) | 38.2 µM (inactive) | > 100 µM (inactive) | > 100 µM (inactive) | > 100 µM (inactive) | > 100 µM (inactive) | 31.2 µM (inactive) | 54.3 µM (inactive)
3 | CN(NC(=O)/C(=C/C=C/c1ccccc1)NC(=O)c1ccccc1)C1=C(Cl)C(=O)[N+](c2ccccc2)=CC1 | 19.7 µM (inactive) | 20.1 µM (inactive) | 26.7 µM (inactive) | 16.7 µM (inactive) | 39.4 µM (inactive) | 20.7 µM (inactive) | 24.3 µM (inactive) | 35.7 µM (inactive) | > 100 µM (inactive) | 17.5 µM (inactive) | 24.2 µM | 37.9 µM (inactive) | 16.7 µM (inactive) | 26.5 µM (inactive) | 19.9 µM (inactive) | 35.4 µM (inactive) | 21.4 µM (inactive) | 23.3 µM (inactive) | 17.9 µM (inactive)
4 | CN1CC[N+](C)=C1c1ccccc1 | > 100 µM (inactive) | > 100 µM (inactive) | > 100 µM (inactive) | > 100 µM (inactive) | > 100 µM (inactive) | > 100 µM (inactive) | > 100 µM (inactive) | > 100 µM (inactive) | > 100 µM (inactive) | > 100 µM (inactive) | > 100 µM | > 100 µM (inactive) | > 100 µM (inactive) | > 100 µM (inactive) | > 100 µM (inactive) | > 100 µM (inactive) | > 100 µM (inactive) | > 100 µM (inactive) | > 100 µM (inactive)
5 | COc1cc([C@@H]2c3cc4c(cc3[C@@H](Nc3ccc([N+](=O)[O-])cc3C(=O)c3ccccc3)[C@H]3COC(=O)[C@H]23)OCO4)cc(OC)c1OC | 0.201 µM (active) | 0.23 µM (active) | 0.304 µM (active) | 0.266 µM (active) | 0.415 µM (active) | 0.587 µM (active) | 0.306 µM (active) | 0.344 µM (active) | 0.46 µM (active) | 0.293 µM (active) | 0.269 µM | 0.481 µM (active) | 0.26 µM (active) | 0.23 µM (active) | 0.156 µM (active) | 0.381 µM (active) | 0.177 µM (active) | 0.16 µM (active) | 0.726 µM (active)
6 | Cn1c(=O)c2[nH]c(C3CC(=O)CC(c4nc5c([nH]4)c(=O)n(C)c(=O)n5C)N3)nc2n(C)c1=O (stereo not given) | > 100 µM (inactive) | > 100 µM (inactive) | > 100 µM (inactive) | > 100 µM (inactive) | > 100 µM (inactive) | > 100 µM (inactive) | 71.3 µM (inactive) | > 100 µM (inactive) | > 100 µM (inactive) | 97.7 µM (inactive) | > 100 µM | > 100 µM (inactive) | 71.3 µM (inactive) | > 100 µM (inactive) | 72.8 µM (inactive) | > 100 µM (inactive) | 95.1 µM (inactive) | > 100 µM (inactive) | > 100 µM (inactive)
7 | CC1=C(C)C(=O)C(C2=C(C3=CC(=O)C(C)=C(C)C3=O)C(=O)c3ccccc3C2=O)=CC1=O | 2.36 µM (inactive) | 2.14 µM (inactive) | 2.31 µM (inactive) | 3.33 µM (inactive) | 8.04 µM (inactive) | 10.4 µM (inactive) | 1.41 µM (inactive) | 2.61 µM (inactive) | 16.5 µM (inactive) | 0.863 µM (active) | 2.12 µM | 1.12 µM (active) | 1.71 µM (inactive) | 1.93 µM (inactive) | 2.77 µM (inactive) | 2.25 µM (inactive) | 1.47 µM (inactive) | 1.88 µM (inactive) | 6.14 µM (inactive)
8 | C#C[C@]1(O)CC[C@H]2[C@@H]3CCC4=C/C(=N/OC(=O)c5cccc6c(=O)c7ccccc7[nH]c56)CC[C@@H]4[C@H]3CC[C@@]21C | 29.5 µM (inactive) | 48.5 µM (inactive) | 66.1 µM (inactive) | 34.8 µM (inactive) | > 100 µM (inactive) | 58.6 µM (inactive) | 16.2 µM (inactive) | 37.5 µM (inactive) | > 100 µM (inactive) | 24.4 µM (inactive) | 36.5 µM | 45 µM (inactive) | 42.5 µM (inactive) | 53.5 µM (inactive) | 17.3 µM (inactive) | 37.5 µM (inactive) | 12.1 µM (inactive) | 18.2 µM (inactive) | 83.6 µM (inactive)
9 | CS[C@]12C(=O)C[C@@]3(C)[C@@H](CC[C@]3(O)C(=O)CO)[C@@H]1CCC1=CC(=O)CC[C@@]12C | > 100 µM (inactive) | > 100 µM (inactive) | > 100 µM (inactive) | > 100 µM (inactive) | > 100 µM (inactive) | > 100 µM (inactive) | 49.8 µM (inactive) | 55 µM (inactive) | > 100 µM (inactive) | > 100 µM (inactive) | 60.7 µM | > 100 µM (inactive) | > 100 µM (inactive) | 95.5 µM (inactive) | 37.1 µM (inactive) | > 100 µM (inactive) | 35 µM (inactive) | 47.9 µM (inactive) | > 100 µM (inactive)
10 | O=C(O)c1ccccc1.[Ag] | 21.3 µM (inactive) | 6.32 µM (inactive) | 6.47 µM (inactive) | 19.5 µM (inactive) | 19.2 µM (inactive) | 34.6 µM (inactive) | 2.55 µM (inactive) | 15.8 µM (inactive) | 17.4 µM (inactive) | 1.87 µM (inactive) | 21.6 µM | 1.7 µM (inactive) | 13.3 µM (inactive) | 2.13 µM (inactive) | 3.2 µM (inactive) | 5.5 µM (inactive) | 5.12 µM (inactive) | 1.5 µM (inactive) | > 100 µM (inactive)
11 | COc1cc(OC)c2nc(C)c(CCCl)c(Cl)c2c1 | > 100 µM (inactive) | > 100 µM (inactive) | > 100 µM (inactive) | > 100 µM (inactive) | > 100 µM (inactive) | > 100 µM (inactive) | > 100 µM (inactive) | > 100 µM (inactive) | > 100 µM (inactive) | > 100 µM (inactive) | > 100 µM | > 100 µM (inactive) | > 100 µM (inactive) | > 100 µM (inactive) | > 100 µM (inactive) | > 100 µM (inactive) | > 100 µM (inactive) | > 100 µM (inactive) | > 100 µM (inactive)
12 | COc1ccc(-c2cc(-c3ccccc3)nc(N)c2-c2ccc3ccccc3c2)cc1 | 2.1 µM (inactive) | 1.24 µM (inactive) | 2.05 µM (inactive) | 1.73 µM (inactive) | 2.04 µM (inactive) | 1.98 µM (inactive) | 2.37 µM (inactive) | 2.22 µM (inactive) | 3.84 µM (inactive) | 1.68 µM (inactive) | 1.54 µM | 1.25 µM (inactive) | 1.83 µM (inactive) | 1.99 µM (inactive) | 2.94 µM (inactive) | 3.46 µM (inactive) | 2.15 µM (inactive) | < 0.01 µM (active) | 1.5 µM (inactive)
13 | Nc1ccn(CC(O)c2cc3ccccc3[nH]2)c(=O)n1 (stereo not given) | > 100 µM (inactive) | > 100 µM (inactive) | > 100 µM (inactive) | > 100 µM (inactive) | > 100 µM (inactive) | > 100 µM (inactive) | > 100 µM (inactive) | > 100 µM (inactive) | > 100 µM (inactive) | > 100 µM (inactive) | > 100 µM | > 100 µM (inactive) | > 100 µM (inactive) | > 100 µM (inactive) | > 100 µM (inactive) | > 100 µM (inactive) | > 100 µM (inactive) | > 100 µM (inactive) | > 100 µM (inactive)
14 | CSc1ccc(NC(=S)NN(C)C)cc1 | > 10 µM (inactive) | > 10 µM (inactive) | > 10 µM (inactive) | > 10 µM (inactive) | > 10 µM (inactive) | > 10 µM (inactive) | > 10 µM (inactive) | > 10 µM (inactive) | > 10 µM (inactive) | > 10 µM (inactive) | > 10 µM | > 10 µM (inactive) | > 10 µM (inactive) | > 10 µM (inactive) | > 10 µM (inactive) | > 10 µM (inactive) | > 10 µM (inactive) | > 10 µM (inactive) | > 10 µM (inactive)
15 | O=c1cc(-c2ccccc2)oc2c1ccc1nc3ccccc3c(O)c12 | 33 µM (inactive) | 26.4 µM (inactive) | 43.5 µM (inactive) | 16.7 µM (inactive) | 27.5 µM (inactive) | 42.4 µM (inactive) | 57.4 µM (inactive) | > 100 µM (inactive) | 43.7 µM (inactive) | > 100 µM (inactive) | 42.3 µM | > 100 µM (inactive) | 36.4 µM (inactive) | 80.2 µM (inactive) | > 100 µM (inactive) | 60.7 µM (inactive) | 40.7 µM (inactive) | 39.9 µM (inactive) | > 100 µM (inactive)
